Reference: patent US20110212467A1, “INHIBITORS OF dUTPase” (UNIVERSITY OF SOUTHERN CALIFORNIA, priority 2008, published 2011)
Blank lines part the entries; values can stand above or below the molecule they belong to.

Assays:
dUTPase = molecular target: T1, dUTPase (Homo sapiens, UniProt P33316); assay: dUTPase activity assay, % inhibition of dUTPase catalysis at 100 μM (Table 1); assay type: biochemical; settings: fixed concentration of 100 μM
T1 sequence (P33316 94-252 limits assumed): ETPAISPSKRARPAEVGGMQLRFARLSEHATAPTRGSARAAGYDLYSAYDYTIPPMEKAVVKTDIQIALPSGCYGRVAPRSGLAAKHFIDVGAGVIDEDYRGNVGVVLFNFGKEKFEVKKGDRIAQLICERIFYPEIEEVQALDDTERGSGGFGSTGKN
Protocol: dUTPase Activity Assay Cells were harvested and protein isolated and quantified as per Western blotting. Twenty-five μg of total protein was normalized to a 20 μl reaction volume with PBS/protease inhibitor. Relative dUTPase activity was determined as previously described (9) and is expressed as fold-change compared to an identical transfection in the presence of 0.5 μg/ml dox.
These molecules were tested in our dUTPase activity assay at an initial 100 μM in vitro to determine their percentage inhibition of dUTPase catalysis relative to un-inhibited control. Table 1 illustrates the docking fitness scores of the top four active compounds and their ability to inhibit dUTPase activity.

[1] = test system: MCF-7 human breast cancer cell line; assay: Growth inhibition by MTS assay in MCF-7 cells, alone and combined with FUdR; assay type: cell-based; settings: MCF-7, MTS assay; for IC50: Homo sapiens, MCF7, read-out: concentration required to inhibit 50% cell growth; for combined drug effect with FUdR on growth inhibition: compound fixed at 62.5 μM with increasing concentrations of FUdR
Protocol: FIG. 9. Inhibitors of dUTPase induce growth arrest in the MCF-7 human breast cancer cell line. (A) MCF-7 cells were exposed to increasing concentrations of two novel dUTPase inhibitory lead compounds and growth inhibition was analyzed by MTS assay. […] (B) DU-203 at a fixed concentration of 62.5 μM was combined with increasing concentrations of FUdR and the combined drug effect analyzed by MTS assay and the degree of synergy determined using the methods of Chou and Talalay. […] BB-123 enhances the growth arrest of MCF-7 cells when combined with FUdR. (C) BB-123 at a fixed concentration of 62.5 μM was combined with increasing concentrations of FUdR and the combined drug effect analyzed as described previously.
Inhibitors of dUTPase induce growth arrest in the MCF-7 human breast cancer cell line. […] These growth inhibitory effects are consistent with the inhibition of dUTPase and the resultant accumulation of dUTP and uracil misincorporation during DNA replication. To test the specificity of these inhibitors, DU-203 and BB-123 were combined with the inhibitor of thymidylate synthase (TS), FUdR.

MCF-7 pTet-off cells [2] = assay: Growth inhibition assay in MCF-7 pTet-off cells; assay type: cell-based; settings: Homo sapiens, MCF7; MCF-7 cells, 72 h
Protocol: Growth Inhibition Assay MCF-7 pTet-off cells were transfected in the presence or absence of 0.5 μg/ml of dox and growth inhibition was measured as previously (9) using CellTiter 96® AQueous One Solution (Promega, Madison, Wis.). Cells were exposed to increasing concentrations of 5-FU for 72 h. Absorbance was measured using a SpectraMax 190 microplate reader (Molecular Devices, Sunnyvale, Calif.) at 490 nm, with drug treated cells compared to untreated controls set at 100%. Statistical significance was determined using a two-tailed unpaired Student's t-test (Graphpad, San Diego, Calif.).
We subsequently investigated the effects of dUTPase overexpression on growth inhibition following exposure of MCF-7 pTet-off cells to increasing concentrations of 5-FU.

MCF-7 pTet-off cells [3] = assay: dUTP accumulation assay; assay type: cell-based, human; settings: 24 h; for reduction in dUTP pool expansion with dUTPase overexpression versus basal dUTPase: 10 μM 5-FU or 1 μM FUdR
Protocol: FIG. 5. Elevated dUTPase Protects Breast Cancer Cells from 5-FU. (A) Western blot and analysis of dUTPase expression and corresponding dUTPase enzyme activity assay following 72 h transfection with pTre-Tight:DUT-N in the presence and absence of 0.5 μg/m1 dox, Histogram bars represent the mean ±SEM of corresponding Western lysates analyzed in duplicate. (B) Analysis of dUTP accumulation in pTre-Tight:DUT-N-transfected MCF-7 psTet-off cells with basal (+dox) and induced (−dox) dUTPase expression and treated with 10 μM 5-FU, 1 μM FUdR and taxol (paclitaxel) 5 nM for 24 h, % dUTP was calculated as described in ‘Materials and Methods’, Histogram bars represent the mean ±SEM of two independent treatments, †=dUTP not detected. (C) Growth inhibition measured by MTS assay in pTre-Tight:DUT-N-transfected MCF-7 pTet-off cells following treatment with increasing concentrations (in μM) of 5-FU for 72 h. Histogram bars represent the mean ±SEM of three independent treatments, *=p<0.05, **=p<0.01.
dUTP Accumulation Assay MCF-7 pTet-off cells were treated with specified concentrations of 5-FU, FUdR and taxol for indicated times, harvested, and 3×10^6 cells were analyzed for nucleotide pool content using the assay developed by Sherman and Fyfe (10) modified to detect levels of TTP and dUTP by pre-incubating extracts with recombinant dUTPase (9, 11). Radioactive incorporation, measured in the presence of dUTPase represented the TTP pool, while untreated extracts represented both the dUTP and TTP pools. dUTP accumulation was determined by subtracting the results of extracts treated with dUTPase from untreated extracts and presented as % accumulation in histogram format. Statistical significance was determined using a two-tailed unpaired Student's t-test (Graphpad, San Diego, Calif.).
Elevated dUTPase Protects Breast Cancer Cells from 5-FU. […] A tetracycline-repressible dUTPase expression construct and overexpressed dUTPase with an approximate 4-fold increase in expression and enzymatic activity in transfected tet-inducible MCF-7 pTet-off cells (FIG. 5A) was utilized. […]

DPD = molecular target: T2, DPD (Homo sapiens, UniProt Q12882); settings: cited from earlier work
T2 construct: host or cells: liver
T2 sequence (Q12882 4-1025): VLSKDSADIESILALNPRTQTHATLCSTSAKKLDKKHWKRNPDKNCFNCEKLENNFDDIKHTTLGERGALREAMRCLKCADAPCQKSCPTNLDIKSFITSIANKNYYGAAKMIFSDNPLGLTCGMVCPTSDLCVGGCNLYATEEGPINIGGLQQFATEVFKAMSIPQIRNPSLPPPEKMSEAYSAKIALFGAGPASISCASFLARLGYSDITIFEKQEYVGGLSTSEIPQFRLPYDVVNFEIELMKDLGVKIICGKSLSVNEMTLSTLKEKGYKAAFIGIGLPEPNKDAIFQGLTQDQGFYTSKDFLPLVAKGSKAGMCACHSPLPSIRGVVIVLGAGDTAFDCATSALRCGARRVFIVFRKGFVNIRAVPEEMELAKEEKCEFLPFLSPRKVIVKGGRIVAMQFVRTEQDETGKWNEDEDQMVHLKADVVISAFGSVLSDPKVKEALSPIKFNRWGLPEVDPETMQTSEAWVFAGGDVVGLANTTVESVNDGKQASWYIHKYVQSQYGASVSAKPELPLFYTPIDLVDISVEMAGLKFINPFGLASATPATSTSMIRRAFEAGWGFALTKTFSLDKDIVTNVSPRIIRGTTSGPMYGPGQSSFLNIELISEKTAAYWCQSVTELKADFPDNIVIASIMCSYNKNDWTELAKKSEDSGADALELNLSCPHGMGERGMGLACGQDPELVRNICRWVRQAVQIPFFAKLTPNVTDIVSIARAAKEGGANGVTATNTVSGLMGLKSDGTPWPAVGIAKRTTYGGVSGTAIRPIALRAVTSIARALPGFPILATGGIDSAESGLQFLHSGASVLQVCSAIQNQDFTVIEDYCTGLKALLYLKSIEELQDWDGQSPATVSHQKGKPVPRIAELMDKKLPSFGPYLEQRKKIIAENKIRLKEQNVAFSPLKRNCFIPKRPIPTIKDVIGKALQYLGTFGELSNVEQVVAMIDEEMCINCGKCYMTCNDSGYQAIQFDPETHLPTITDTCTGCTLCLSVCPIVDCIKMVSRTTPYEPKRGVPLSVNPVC

advanced breast cancer = settings: cited from earlier work; for time to progression: capecitabine alone, or lapatinib combined with capecitabine

Compound: CC(=O)CSc1nc2c(c(=O)[nH]c(=O)n2C)n1CC(O)COc1ccccc1C (centres unmarked) [BB37]
inhibition at 100 µM (dUTPase): 34%

Compound: CCc1ccc(N2CN(c3ccc(CC)cc3)CN(c3ccc(CC)cc3)C2)cc1 [BB123]
IC50 [1]: 73.8 µM | combined drug effect with FUdR on growth inhibition [1]: enhanced growth inhibition at all concentrations tested | combined drug effect with FUdR on growth inhibition ([1]; listed as BB-123): enhanced growth inhibition is observed at all concentrations tested

Compound: O=c1[nH]c(=O)n([C@H]2C[C@H](O)[C@@H](CO)O2)cc1F [FUdR, fluorodeoxyuridine]
reduction in dUTP pool expansion with dUTPase overexpression versus basal dUTPase (MCF-7 pTet-off cells [3]): 38%

Compound: CCCCCOC(=O)Nc1nc(=O)n([C@@H]2O[C@H](C)[C@@H](O)[C@H]2O)cc1F [capecitabine]
time to progression (advanced breast cancer): 19.7 weeks

Compound: CS(=O)(=O)CCNCc1ccc(-c2ccc3ncnc(Nc4ccc(OCc5cccc(F)c5)c(Cl)c4)c3c2)o1 [lapatinib]
time to progression (advanced breast cancer): 36.9 weeks | improved response rate compared to capecitabine alone (advanced breast cancer; combined with capecitabine, ErbB2 positive advanced breast cancer, previously failed multiple lines of therapy): 12.2%

Compound: CC(=O)O[C@H]1C(=O)[C@@]2(C)[C@H]([C@H](OC(=O)c3ccccc3)[C@]3(O)C[C@H](OC(=O)[C@H](O)[C@@H](NC(=O)c4ccccc4)c4ccccc4)C(C)=C1C3(C)C)[C@]1(OC(C)=O)CO[C@@H]1C[C@@H]2O [paclitaxel]
dUTP detection (MCF-7 pTet-off cells [3]; taxol 5 nM, basal or induced dUTPase expression): no detection of dUTP

Continued, in another order:

IC50 (MCF-7 pTet-off cells [2]): > 10 µM
Compound: O=c1[nH]cc(F)c(=O)[nH]1 [Compound 5-FU, 5-fluorouracil]
reduction in dUTP pool expansion with dUTPase overexpression versus basal dUTPase (MCF-7 pTet-off cells [3]): 37% | 5-FU degraded by DPD in the liver (DPD): > 80%

inhibition at 100 µM (dUTPase): 55.7%
Compound: CCCc1ccc(OCC(=O)Nc2ccc(S(=O)(=O)Nc3onc(C)c3C)cc2)cc1 [Du 7]

inhibition at 100 µM (dUTPase): 28.5%
Compound: Cc1cc(C)c(NC(=O)CSc2nc3ccc(NC(=O)CSc4nnc(COc5ccccc5)n4-c4ccccc4)cc3s2)c(C)c1 [Du 44]

% dUTPase Inhibition (dUTPase): Inactive
Compound: N#Cc1c(N)nc(SCC(=O)c2ccc(F)cc2)c(C#N)c1-c1ccc(OCc2ccccc2)cc1 [Du 202]

IC50 [1]: 65.1 µM
Compound: COc1cc(/C=N/NC(=O)C(Cc2c[nH]c3ccccc23)NC(=O)OCc2ccccc2)cc([N+](=O)[O-])c1O (centres unmarked) [Du 203]
combined drug effect with FUdR on growth inhibition [1]: enhanced growth inhibition is observed at all concentrations tested
